{
  "source": "patent US10265317B2",
  "about": "“Combination of creatine, an omega-3 fatty acid, and citicoline” (University of Utah Research Foundation, priority 2014, dated 2019)",
  "key": {"[1]": {"test_system": "females between 40-60 years of age", "assay": "Hamilton Anxiety Rating Scale (HAM-A), clinical study", "format": "in vivo, human", "conditions": "Visit 2, higher score indicates more severe symptoms", "procedure": "(§1) Approval for the study was obtained from the University of Utah Institutional Review Board (IRB). Informed consent consisted of written assent from participants. The study was conducted under U.S. Food and Drug Administration (FDA) Investigational New Drug Application #104,586. An external Data Safety and Monitoring Board vested with authority to halt the trial was established, and the study was conducted in accordance of the principles of Good Clinical Practice (GCP).\n(§2) Participants were recruited through self-referral and IRB-approved advertising. Consecutive patients who met inclusion criteria were enrolled. Inclusion criteria included the following: females between 40-60 years of age. […]\n(§3) At each study visit, the following rating scales were administered: the Hamilton Anxiety Rating Scale (HAM A) (Hamilton, 1969) and the Hamilton Depression Rating Scale (HAM D) (Hamilton, 1960), the California Verbal Learning Test (Delis et al., 1987) and the Rey Osterrieth Figure Test (Bennett-Levy, 1984). Adverse events we recorded at each study visit. […]"}, "[2]": {"test_system": "frontal lobe levels of both phosphocreatine and adenosine triphosphate", "conditions": "chronic oral administration; cited from earlier work"}, "[3]": {"test_system": "females between 40-60 years of age", "assay": "Hamilton Depression Rating Scale (HAM-D), clinical study", "format": "in vivo, human", "conditions": "Visit 2, higher score indicates more severe symptoms", "procedure": "as §1, §2, §3"}},
  "data": [
    {"molecule": "C[N+](C)(C)CCOP(=O)(O)OP(=O)([O-])OC[C@H]1O[C@@H](n2ccc(N)nc2=O)[C@H](O)[C@@H]1O", "note": "[CDP-Choline, cytidine-5′-diphosphocholine]", "values": [
      {"measurement": "HAM-A Mean", "setting": "[1]; 250 mg CDP-Choline", "value": 1.80},
      {"measurement": "HAM-A Mean", "setting": "[1]; 500 mg CDP-Choline", "value": 1.35},
      {"measurement": "frontal lobe levels of phosphocreatine and adenosine triphosphate", "setting": "[2]", "value": "increase"},
      {"measurement": "HAM-D Mean", "setting": "[3]; 250 mg CDP-Choline", "value": 1.60},
      {"measurement": "HAM-D Mean", "setting": "[3]; 500 mg CDP-Choline", "value": 1.35}
    ]}
  ]
}
